Here are results for 7 compounds from patent US20040138274A1, “Novel pharmaceuticals” (priority 2002, published 2004).

One assay has as its target T1, NEP from human kidney (Homo sapiens, UniProt P08473).
T1 construct: Enzyme: NEP from human kidney (prepared using the method of Kenny and Booth); from tissue; host or cells: human kidney
Nature of the assay: Assay 2: modified NEP fluorescence assay for potent tight-binding inhibitors. It counts as biochemical. To be noted: as determined by Assay 2, substrate Abz-D-Arg-Arg-Leu-EDDnp, read-out: IC50 against NEP. Here is the method:
Assay 2: This is a modification of Assay 1 which is adapted for potent tight-binding inhibitors.
Buffer: 50 mM Tris pH 7.4
Buffer containing 4% DMSO: 4 ml DMSO added to 96 ml buffer
Enzyme: NEP from human kidney (prepared using the method of Kenny and Booth, Biochem. J. 142, 575, 1974) aliquots stored at −70° C. The NEP activity of each preparation is determined by using serial dilutions of the preparation in this assay without inhibitor, a dilution that achieves 10 to 15% conversion of substrate is used in inhibitor studies.
Inhibitors: Inhibitors are dissolved in DMSO to give a 10 mM solution then further diluted to 1 mM in DMSO. A further dilution is made (40 μl into 960 μl buffer) to give 4×10^−5M inhibitor in buffer containing 4% DMSO. All further dilutions are made in buffer containing 4% DMSO. Inhibitors are assayed utilising an eight point (half log units) dose response curve in duplicate.
Substrate: The substrate (Abz-D-Arg-Arg-Leu-EDDnp, K. M. Carvalho et al. Analytical Biochem 237, 167-173 (1996)) is stored at −70° C. A 2 mM stock is made in buffer and aliquots stored at −70° C. for up to 1 month.
Stop solution: Phosphoramidon (Sigma R7385) 300 nM in buffer. Aliquots of 300 μM solution are stored at −20° C. and diluted 1000 fold in buffer.
Product: Two samples corresponding to 100% conversion of substrate to product are included in the assay to enable the % substrate turnover to be determined. Add 200 μl of 25 μM product and 100 μl stop solution. A stock of this is generated by incubating 1 ml of 25 μM substrate with 20 μl of enzyme stock overnight at 37° C., aliquot and store at −70° C.
Plates: Black Costar 96 well plate Cat# 3915
Fluorescence reader: BMG Fluostar, read at ex320 em420
1. Add 50 μl of inhibitor (4× assay conc)
3. Add 50 μl of enzyme dilution (1:800)
4. Incubate at 37° C. for 1 hour
5. Initiate the reaction by adding 20 μl of substrate
5. Incubate at 37° C. for 3 hours
6. Add 100 μl of stop solution.
7. Read fluorescence using a FLUOstar. (Ex320/Em420
Included in each assay are:
Non enzyme blanks (enzyme replaced with buffer and compound dilution replaced with 4% DMSO buffer)
Controls (compound dilution replaced with 4% DMSO buffer)
Total product (see below)

The test system of assay [1] is black patients with essential hypertension. To be noted: clinical study of 24 black patients with essential hypertension; cited from earlier work.
In a further assay the test system is hypertensive patients. To be noted: added to the ACE inhibitor lisinopril; clinical study involving 37 hypertensive patients; cited from earlier work.
The next assay concerns hypertensive rats. To be noted: cited from earlier work.

T1 sequence (P08473 whole entry): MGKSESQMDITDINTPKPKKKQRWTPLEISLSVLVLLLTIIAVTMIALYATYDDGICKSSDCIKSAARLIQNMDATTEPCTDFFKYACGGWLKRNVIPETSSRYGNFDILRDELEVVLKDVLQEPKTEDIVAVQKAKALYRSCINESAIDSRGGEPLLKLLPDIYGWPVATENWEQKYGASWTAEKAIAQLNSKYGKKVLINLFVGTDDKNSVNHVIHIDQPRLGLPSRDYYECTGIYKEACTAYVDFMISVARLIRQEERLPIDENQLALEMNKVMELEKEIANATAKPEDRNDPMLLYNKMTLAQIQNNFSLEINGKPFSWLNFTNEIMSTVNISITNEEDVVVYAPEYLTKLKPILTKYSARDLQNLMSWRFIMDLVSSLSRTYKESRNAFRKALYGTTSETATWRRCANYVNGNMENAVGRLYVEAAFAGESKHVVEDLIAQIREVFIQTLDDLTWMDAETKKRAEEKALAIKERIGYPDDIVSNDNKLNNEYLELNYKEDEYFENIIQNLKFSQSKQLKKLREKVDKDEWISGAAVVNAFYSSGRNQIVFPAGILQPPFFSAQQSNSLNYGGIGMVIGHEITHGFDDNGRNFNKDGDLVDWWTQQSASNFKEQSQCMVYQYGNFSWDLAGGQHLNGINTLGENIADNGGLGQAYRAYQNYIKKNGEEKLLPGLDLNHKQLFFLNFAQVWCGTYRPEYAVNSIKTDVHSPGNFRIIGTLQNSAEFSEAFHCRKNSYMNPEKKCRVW

`COCC[C@H](CC1(C(=O)N[C@@H](Cc2ncc(-c3ccc(F)cc3)o2)C(=O)O)CCCC1)C(=O)O` [Example 26]: the IC50 at NEP from human kidney was determined as 0.3 nM.

In the case of `CCC[C@H](CC1(C(=O)N[C@@H](Cc2ncc(-c3ccccc3)o2)C(=O)O)CCCC1)C(=O)O` [Example 29, (2R)-2-{1-[(1S)-1-Carboxy-2-(5-phenyl-oxazol-2-yl)-ethylcarbamoyl]-cyclopentylmethyl}-pentanoic Acid], the IC50 on NEP from human kidney was 0.7 nM.

`COCC[C@H](CC1(C(=O)N[C@@H](Cc2ncc(-c3ccc(Cl)cc3)o2)C(=O)O)CCCC1)C(=O)O` [Example 30, (2S)-2-(1-{(1S)-1-Carboxy-2-[5-(4-chloro-phenyl)-oxazol-2-yl]-ethylcarbamoyl}-cyclopentylmethyl)-4-methoxy-butyric Acid]: at NEP from human kidney, the half-maximal inhibitory concentration (IC50) was determined as 0.3 nM.

Take `COCC[C@H](CC1(C(=O)N[C@@H](Cc2ncc(-c3ccccc3)o2)C(=O)O)CCCC1)C(=O)O` [Example 40, (2S)-2-{1-[(1S)-1-Carboxy-2-(5-phenyl-oxazol-2-yl)-ethylcarbamoyl]-cyclopentylmethyl}-4-methoxy-butyric Acid]: the IC50 at NEP from human kidney was 0.3 nM.

`CC1(C)OCC(COC(=O)C(Cc2ccccc2)N[C@@H](Cc2ccccc2)C(=O)NCCC(=O)O)O1` (stereo partly shown) [SCH34826]: the supine blood pressure result in assay [1] was “significantly lowered supine blood pressure”.

Take `COCCOC[C@H](CC1(C(=O)N[C@H]2CC[C@@H](C(=O)O)CC2)CCCC1)C(=O)Oc1ccc2c(c1)CCC2` [candoxatril]: in the assay with hypertensive patients, the “supine and erect blood pressure” value was “marked reduction in both supine and erect blood pressure”.

Regarding `COCCOC[C@H](CC1(C(=O)N[C@H]2CC[C@@H](C(=O)O)CC2)CCCC1)C(=O)O` [candoxatrilat], in the assay with hypertensive rats, the systolic blood pressure entry is “lowers systolic blood pressure”.

Usually IC50 stands for the concentration needed to halve the response being measured.
